# Measurements published in ChEMBL document CHEMBL1126440, “Design and synthesis of azabicyclic muscarinic agonists incorporating an oxime ether functionality” (Bioorg Med Chem Lett, 1992).
# How the values were obtained:
# [1] = target: Muscarinic acetylcholine receptor; assay: Displacement of [3H]quinuclidinyl benzilate(QNB) binding from muscarinic receptors of rat cerebral cortex; 3400-8000; format: tissue-based
# [2] = target: Muscarinic acetylcholine receptor; assay: Displacement of [3H]- oxotremorine-M (OXO-M) binding from muscarinic receptors of rat cerebral cortex; 155-265; format: tissue-based
# [3] = target: Muscarinic acetylcholine receptor (Rattus norvegicus) (UniProt P08482+P08483+P08485+P08911+P10980); assay: Relative affinity of oxotremorine-M (OXO-M) and [3H]quinuclidinyl benzilate (QNB) for muscarinic receptors; format: protein assay
# [4] = target: Muscarinic acetylcholine receptor; assay: Displacement of [3H]- oxotremorine-M (OXO-M) binding from muscarinic receptors of rat cerebral cortex; 66-83; format: tissue-based
# [5] = target: Muscarinic acetylcholine receptor; assay: Displacement of [3H]quinuclidinyl benzilate(QNB) binding from muscarinic receptors of rat cerebral cortex; 1400-2900; format: tissue-based
# [6] = target: Muscarinic acetylcholine receptor; assay: Displacement of [3H]- oxotremorine-M (OXO-M) binding from muscarinic receptors of rat cerebral cortex; 90-155; format: tissue-based
# [7] = target: Muscarinic acetylcholine receptor; assay: Displacement of [3H]quinuclidinyl benzilate(QNB) binding from muscarinic receptors of rat cerebral cortex; 36000-40000; format: tissue-based
# [8] = target: Muscarinic acetylcholine receptor; assay: Displacement of [3H]quinuclidinyl benzilate(QNB) binding from muscarinic receptors of rat cerebral cortex; 2000-4800; format: tissue-based
# [9] = target: Muscarinic acetylcholine receptor; assay: Displacement of [3H]- oxotremorine-M (OXO-M) binding from muscarinic receptors of rat cerebral cortex; 10-30; format: tissue-based
# Rattus norvegicus [10] = assay: Effective dose required to cause 50% fall in mean blood pressure (BP) […] of urethane anesthetized rats after iv administration of compound; format: functional
# Rattus norvegicus [11] = assay: Dose required to produce a change in the mean power spectrum of EEG equivalent to that of a standard dose (0.32 mg/Kg i.v.) of arecoline after iv administration of compound; format: functional
# [12] = Ratio of change in mean blood pressure (BP) to that of mean power spectrum of EEG; format: functional
# [13] = target: Muscarinic acetylcholine receptor; assay: Displacement of [3H]quinuclidinyl benzilate(QNB) binding from muscarinic receptors of rat cerebral cortex; 2500-5600; format: tissue-based
# [14] = target: Muscarinic acetylcholine receptor; assay: Displacement of [3H]- oxotremorine-M (OXO-M) binding from muscarinic receptors of rat cerebral cortex; format: tissue-based
# [15] = target: Muscarinic acetylcholine receptor; assay: Displacement of [3H]- oxotremorine-M (OXO-M) binding from muscarinic receptors of rat cerebral cortex; 83-128; format: tissue-based
# [16] = target: Muscarinic acetylcholine receptor; assay: Displacement of [3H]quinuclidinyl benzilate(QNB) binding from muscarinic receptors of rat cerebral cortex; 6200-9000; format: tissue-based
# [17] = target: Muscarinic acetylcholine receptor; assay: Displacement of [3H]- oxotremorine-M (OXO-M) binding from muscarinic receptors of rat cerebral cortex; 12-62; format: tissue-based
# [18] = target: Muscarinic acetylcholine receptor; assay: Displacement of [3H]quinuclidinyl benzilate(QNB) binding from muscarinic receptors of rat cerebral cortex; 1400-2700; format: tissue-based
# [19] = target: Muscarinic acetylcholine receptor; assay: Displacement of [3H]quinuclidinyl benzilate(QNB) binding from muscarinic receptors of rat cerebral cortex; 2700-3000; format: tissue-based
# [20] = target: Muscarinic acetylcholine receptor; assay: Displacement of [3H]- oxotremorine-M (OXO-M) binding from muscarinic receptors of rat cerebral cortex; 230-335; format: tissue-based
# [21] = target: Muscarinic acetylcholine receptor; assay: Displacement of [3H]- oxotremorine-M (OXO-M) binding from muscarinic receptors of rat cerebral cortex; 65-110; format: tissue-based
# [22] = target: Muscarinic acetylcholine receptor; assay: Displacement of [3H]quinuclidinyl benzilate(QNB) binding from muscarinic receptors of rat cerebral cortex; 3400-10000; format: tissue-based
# [23] = target: Muscarinic acetylcholine receptor; assay: Displacement of [3H]quinuclidinyl benzilate(QNB) binding from muscarinic receptors of rat cerebral cortex; format: tissue-based
# [24] = target: Muscarinic acetylcholine receptor; assay: Displacement of [3H]- oxotremorine-M (OXO-M) binding from muscarinic receptors of rat cerebral cortex; 205-310; format: tissue-based
# [25] = target: Muscarinic acetylcholine receptor; assay: Displacement of [3H]quinuclidinyl benzilate(QNB) binding from muscarinic receptors of rat cerebral cortex; 4800-6300; format: tissue-based
# [26] = target: Muscarinic acetylcholine receptor; assay: Displacement of [3H]- oxotremorine-M (OXO-M) binding from muscarinic receptors of rat cerebral cortex; 44-170; format: tissue-based
# [27] = target: Muscarinic acetylcholine receptor; assay: Displacement of [3H]quinuclidinyl benzilate(QNB) binding from muscarinic receptors of rat cerebral cortex; 2600-4400; format: tissue-based
# [28] = target: Muscarinic acetylcholine receptor; assay: Displacement of [3H]- oxotremorine-M (OXO-M) binding from muscarinic receptors of rat cerebral cortex; 44-48; format: tissue-based
# [29] = target: Muscarinic acetylcholine receptor; assay: Displacement of [3H]quinuclidinyl benzilate(QNB) binding from muscarinic receptors of rat cerebral cortex; 12500-16500; format: tissue-based
# [30] = target: Muscarinic acetylcholine receptor; assay: Displacement of [3H]- oxotremorine-M (OXO-M) binding from muscarinic receptors of rat cerebral cortex; 50-65; format: tissue-based
smiles,measurement,setting,value
CC/C(=N\OC)[C@H]1CN2CC[C@H]1C2,IC50,[1],5200 nM
same,IC50,[2],208 nM
same,Ratio,[3],25
CO/N=C(\C)C1CN2CCC1CC2 (stereo not drawn),IC50,[4],69 nM
same,IC50,[5],2000 nM
same,Ratio,[3],29
CO/N=C/C12CCN(CC1)C2,IC50,[6],118 nM
same,IC50,[7],38000 nM
same,Ratio,[3],321
CO/N=C/[C@H]1CN2CC[C@H]1C2,IC50,[8],3100 nM
same,IC50,[9],15 nM
same,ED50,Rattus norvegicus [10],0.0031 mg/kg
same,ED Arec,Rattus norvegicus [11],0.0021 mg/kg
same,Ratio,[12],1.5
CCO/N=C/[C@H]1CN2CC[C@H]1C2,IC50,[13],3700 nM
same,IC50,[14],160 nM
same,ED50,Rattus norvegicus [10],> 1.8 mg/kg
same,ED Arec,Rattus norvegicus [11],0.23 mg/kg
same,Ratio,[3],23
same,Ratio,[12],>7.8
CO/N=C(\C)[C@H]1CN2CC[C@H]1C2,IC50,[15],99 nM
same,IC50,[16],7500 nM
same,Ratio,[3],76
C#CCO/N=C/[C@H]1CN2CC[C@H]1C2,IC50,[17],25 nM
same,ED50,Rattus norvegicus [10],0.17 mg/kg
same,ED Arec,Rattus norvegicus [11],0.016 mg/kg
same,Ratio,[3],78
same,Ratio,[12],10.6
same,IC50,[18],1950 nM
CCCO/N=C/[C@H]1CN2CC[C@H]1C2,IC50,[19],2900 nM
same,IC50,[20],278 nM
same,Ratio,[3],10
CO/N=C/C1CN2CCC1CC2 (stereo not drawn),IC50,[21],95 nM
same,IC50,[22],5800 nM
same,Ratio,[3],61
CCCCO/N=C/[C@H]1CN2CC[C@H]1C2,IC50,[23],3600 nM
same,IC50,[24],252 nM
same,Ratio,[3],14
CO/N=C/C12CCCN(CC1)C2 (stereo not drawn),IC50,[25],5200 nM
same,IC50,[26],60 nM
same,Ratio,[3],87
CO/N=C(\C)C12CCCN(CC1)C2 (stereo not drawn),IC50,[27],3400 nM
same,IC50,[28],46 nM
same,Ratio,[3],74
COC(=O)C1CN2CCC1CC2 (stereo not drawn),Ratio,[3],48
CO/N=C(\C)C12CCN(CC1)C2,IC50,[29],14000 nM
same,IC50,[30],55 nM
same,Ratio,[3],255
